Here are results for three molecules from patent US20250154547A1, “REAGENTS AND METHODS USED IN DEPROTECTION OF 3'-O-AMINO POLYNUCLEOTIDES” (priority 2023, published 2025).

Read-outs that look alike come from different tables or passages of the source.

For experiment [1], the system named is dATP-3′-ONH2, dTTP-3′-ONH2, dCTP-3′-ONH2 or dGTP-3′-ONH2. The experiment is described as follows: Deprotection study with various 3′-O-NH2 nucleotides (96-well screening, RP-HPLC). Conditions: for pH of highest cleavage rate (optimal pH): 2 mM agent, 1 mM dNTP-3′-ONH2, pH 5.0-8.25. As for the experimental part: The screening tests were performed in a 96-well plate with a reaction volume of 100 uL. Nucleoside triphosphate (dATP-3′-ONH2, dTTP-3′-ONH2, dCTP-3′-ONH2 or dGTP-3′-ONH2) were taken at 1 mM final concentration in one of four 50 mM buffers (A: sodium acetate pH 5.0, B: sodium phosphate pH 6.0, C: sodium phosphate 7.0, D: sodium bicarbonate pH around 8, i.e. 8.25). Tetrasodium carbonylbisphosphonate was added to the dNTPs solutions at 2 mM final concentration and incubated during 5, 20 or 60 mins prior to quenching with 2× concentration of hydroxylamine hydrochloride. The 96-well plate were agitated with Thermomixer at 25° C. or 40° C. The catalytic effect of magnesium on cleavage rate was also investigated. For this purpose, the same experiments were performed in the presence of 20 mM magnesium sulfate. Prior to HPLC analysis reaction mixtures were additionally quenched with acetone to convert 3′-ONH2 to acetoxime form. The samples were analyzed by RP-HPLC with gradual gradient of acetonitrile in 50 mM TEAB buffer (pH 8.5). The cleavage rate was determined based on the ratio between dNTP-3′-OH and dNTP-3′-acetoxime.
Xterra RP C18 Column: 4.6*50 mm, (3.5 um silica), Buffer A: 50 mM TEAA (pH 7.0), Buffer B: 100% ACN. Method: 0-2 min—0% ACN B, 6 min—10% ACN, 8 min—30% ACN, 8-10 min—100% ACN. Flowrate: 1.5 mL/min, no loop insert.

For the molecule `CC(=O)P(=O)(O)O` [acetylphosphonic acid, Acetylphosphonic acid], the “conversion of 3′-ONH2 to 3′-OH” value with dTTP-3′-ONH2 (2 eq, 60 minutes, pH 6 or 7, 25° C.) was “about 60%”.

As for `O=C(P(=O)(O)O)P(=O)(O)O` [carbonylbisphosphonate, Tetrasodium Carbonylbisphosphonate], the “conversion of 3′-ONH2 to 3′-OH” value with dTTP-3′-ONH2 (2 eq deprotecting agent, pH 5, 5 min, 25° C., 1 mM dTTP-3′-ONH2) came to 100%. Also, the “pH of highest cleavage rate (optimal pH)” value in experiment [1] was “around 5”; in experiment [1] (listed as carbonyl bisphosphonate), 5.0. Moreover, the “Mg (II) impact on cleavage yield” value in experiment [1] (20 mM magnesium sulfate) was “Magnesium markedly facilitates the cleavage yield at higher pH”.

With `O=NO` [sodium nitrite, reference compound], in the experiment with dTTP-3′-ONH2 (pH 5), the “conversion to dTTP-OH” value is “about 80%” and the “reaction speed with oxyamines compared with carbonylbisphosphonate” value is reported as “several times slower”.
